Measurements reported in patent US20180296503A1 (priority 2014, published 2018).

How the values were obtained:
[1] = system: rd10^+/+ mice; experiment: Scotopic, photopic and low background photopic electroretinograms (ERGs) in rd10+/+ mice given drug in drinking water; format: in vivo; settings: for mean peak scotopic ERG b-wave amplitude compared with controls: vs controls
Procedure: Scotopic and photopic electroretinograms (ERGs) were recorded at P35. Scotopic, photopic and low background photopic ERGs were recorded at P50.

[2] = system: rd10^+/+ mice; experiment: Cone density in PNA-stained retinal flat mounts of rd10+/+ mice at P50; format: in vivo; settings: for cone cell density compared to NAC-treated mice: P50, four quadrants
[3] = biological target: glutamate cysteine ligase (GCL, EC 6.3.2.2); settings: nonallosteric competitive inhibition of GCL; cited from earlier work
[4] = oral formulations; cited from earlier work
[5] = humans; oral dose of 600 mg; cited from earlier work
[6] = same oral dose or substantially lower dose than NAC, rd10+/+ mice

For `CC(=O)N[C@@H](CS)C(N)=O`, the “protecting retinal function (FIGS. 1A to 1E)” value ([1]; 7 mg/ml NACA vs 7 mg/ml NAC) was “better effects”, the “protecting retinal function (FIGS. 3A to 3E)” value ([1]; 7 mg/ml NACA vs 20 mg/ml NAC) was “better effects” and the “mean peak scotopic ERG b-wave amplitude compared with 20 mg/ml NAC” value ([1]; P35, 7 mg/ml NACA vs 20 mg/ml NAC) was “similar”. The “mean peak photopic b-wave amplitude, higher than in NAC-treated mice” value ([1]; P35, 7 mg/ml NACA vs 20 mg/ml NAC, p=0.024) was 41%, the “mean scotopic b-wave amplitudes compared with NAC-treated mice” value ([1]; P50, 7 mg/ml NACA vs 20 mg/ml NAC, at 10 of 11 stimulus intensities) was “significantly greater” and the “mean photopic ERG b-wave amplitude, higher than in NAC-treated mice” value ([1]; P50, 7 mg/ml NACA vs 20 mg/ml NAC, at all 3 stimulus intensities, p=0.001) was 50%. For the same molecule, the “mean peak scotopic ERG b-wave amplitude compared with controls” value ([1]; P50, 7 mg/ml NACA) was “sustained higher amplitudes”, the “preservation of cone cell function compared with NAC” value [1, 6] was “significantly greater preservation” and the “protecting cone cell survival (FIGS. 2A to 2M)” value ([2]; 7 mg/ml NACA vs 7 mg/ml NAC) was “better effects”. For the same molecule, the “protecting cone cell survival (FIGS. 4A to 4M)” value ([2]; 7 mg/ml NACA vs 20 mg/ml NAC) was “better effect”, the “cone cell density compared to NAC-treated mice” value ([2]; 7 mg/ml NACA vs 7 mg/ml NAC, p<0.0001 by ANOVA with Dunnett's correction) was “significantly greater in 3 of 4 quadrants” and the “cone cell density compared to NAC-treated mice” value ([2]; 7 mg/ml NACA vs 20 mg/ml NAC) was “significantly greater in 2 of 4 quadrants”. The “preservation of cone survival compared with NAC” value [2, 6] was “significantly greater preservation”.

In the case of `N[C@@H](CCC(=O)N[C@@H](CS)C(=O)NCC(=O)O)C(=O)O` [GSH, c-L-glutamyl-L-cysteinyl-glycine], the Ki [3] is listed as 2300 µM.

In the case of `CC(=O)N[C@@H](CS)C(=O)O` [NAC, N-acetyl-L-cysteine], the systemic bioavailability [4] is listed as under 10%, the “time after administration at which no NAC is detectable” value [5] is listed as 10 to 12 h and the “mean peak scotopic ERG b-wave amplitude compared with controls” value ([1]; P50, 20 mg/ml NAC) is listed as “sustained higher amplitudes”.
